Measured values as given in US20260058014A1, “CHARACTERIZATION OF TUMOR HET[…] A […]” (Foundation Medicine, Inc., priority 2022, published 2026).

Test system: EGFR driver alteration-positive NSCLC patients
Experiment: Progression free survival from start of 1st line Osimertinib in a real-world clinico-genomic NSCLC cohort stratified by tumor heterogeneity score
Type: in vivo, human
Excerpt: Starting with a patient cohort of 15,035 patients, the data was filtered (for biopsy type and bait set). The data was then filtered to exclude data for patients for whom a computational tumor purity was less than or equal to 20% or for whom a computational tumor purity value was missing. The remaining patient data was divided according to whether the samples were early-stage specimens, late-stage specimens, or of ambiguous origin. For the late-stage specimens, data for patients who were first diagnosed prior to Jan. […] Finally, data was selected for N=135 1st line Osimertinib-treated, EGFR driver alteration-positive NSCLC patients for whom tumor samples were sequenced at most a year prior to start of therapy.
The group of 135 patients were then divided into three tertiles with 45 patients each. […] For patients without a subsequent line of therapy, the event date was the earliest progression event that occurred more than 14 days after the index date, or the date of death. • Censor date: patients with a subsequent line of therapy were censored at their last clinic note date if it occurred between the index date and the start date of the subsequent line of therapy plus 14 days. […]

C=CC(=O)Nc1cc(Nc2nccc(-c3cn(C)c4ccccc34)n2)c(OC)cc1N(C)CCN(C)C [Osimertinib]
mPFS (Score category High, EGFR CCF category Low, N=12): 6.54 | mPFS (Score category Low, EGFR CCF category High, N=39): 16.01
